# Results taken from patent US8222404B2, “[1,2,4]Thiadiazin-3-yl acetic acid compound and methods of making the acetic acid compound” (Anadys Pharmaceuticals, Inc., priority 2008, dated 2012).
# Test system: HCV Huh-luc/neo-ET replicon cells
# Experiment: Luciferase-Based HCV Replicon Assay (EC50 (1b))
# Type: cell-based
# Conditions: Hepatitis C virus, 72 hours exposure, luciferase activity
# Summary of the method: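 Replicon cells seeded, then exposed 24 h later to a compound concentration series in triplicate for 72 h. Luciferase luminescence read; % inhibition vs no-compound control, with 100 nM BILN-2061 as background, used to derive EC50 (1b).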
row,SMILES,EC50
1,"COc1ccc(CN2C(=O)C(C3=NS(=O)(=O)c4c(CNS(C)(=O)=O)csc4N3)=C(O)C3C4CCC(O4)C32)c(OC)c1 (racemic) [Example 75, (rac-di-exo)-N-{3-[3-(2,4-Dimethoxy-benzyl)-6-hydroxy-4-oxo-11-oxa-3-aza-tricyclo[6.2.1.0^2,7]undec-5-en-5-yl]-1,1-dioxo-1,4-dihydro-1λ^6-thieno[2,3-e][1,2,4]thiadiazin-7-ylmethyl}-methanesulfonamide]",> 1000 nM
2,"CS(=O)(=O)NCc1csc2c1S(=O)(=O)N=C(C1=C(O)[C@@H]3C4CCC(CC4)[C@@H]3NC1=O)N2 [Example 82, N-[3-((2S,7R)-6-Hydroxy-4-oxo-3-aza-tricyclo[6.2.2.0^2,7]dodec-5-en-5-yl)-1,1-dioxo-1,4-dihydro-1λ^6-thieno[2,3-e][1,2,4]thiadiazin-7-ylmethyl]-methanesulfonamide]",> 1000 nM
3,"CS(=O)(=O)NCc1csc2c1S(=O)(=O)N=C(C1=C(O)C3CCCCC3N(Cc3ccc(F)cc3Cl)C1=O)N2 (racemic) [Example 117, (rac-cis)-N-{3-[1-(2-Chloro-4-fluoro-benzyl)-4-hydroxy-2-oxo-1,2,4a,5,6,7,8,8a-octahydro-quinolin-3-yl]-1,1-dioxo-1,4-dihydro-1λ^6-thieno[2,3-e][1,2,4]thiadiazin-7-ylmethyl}-methanesulfonamide]",100 to 1000 nM
4,"CS(=O)(=O)NCc1csc2c1S(=O)(=O)N=C(C1=C(O)[C@@H]3CCC[C@@H]3N(C3CCCCC3)C1=O)N2 [Example 99, (4aR,7aS)-N-[3-(1-Cyclohexyl-4-hydroxy-2-oxo-2,4a,5,6,7,7a-hexahydro-1H-[1]pyrindin-3-yl)-1,1-dioxo-1,4-dihydro-1λ^6-thieno[2,3-e][1,2,4]thiadiazin-7-ylmethyl]-methanesulfonamide]",100 to 1000 nM
5,"CS(=O)(=O)NCc1csc2c1S(=O)(=O)N=C(C1=C(O)C3CCCCC3N(C3CCCCC3)C1=O)N2 (racemic) [Example 100, (rac-cis)-N-[3-(1-Cyclohexyl-4-hydroxy-2-oxo-1,2,4a,5,6,7,8,8a-octahydro-quinolin-3-yl)-1,1-dioxo-1,4-dihydro-1λ^6-thieno[2,3-e][1,2,4]thiadiazin-7-ylmethyl]-methanesulfonamide]",100 to 1000 nM
6,"CS(=O)(=O)NCc1csc2c1S(=O)(=O)N=C(C1=C(O)C3CCCCCC3NC1=O)N2 (racemic) [Example 87, (rac-cis)-N-[3-(4-Hydroxy-2-oxo-2,4a,5,6,7,8,9,9a-octahydro-1H-cyclohepta[b]pyridin-3-yl)-1,1-dioxo-1,4-dihydro-1λ^6-thieno[2,3-e][1,2,4]thiadiazin-7-ylmethyl]-methanesulfonamide]",> 1000 nM
7,"CS(=O)(=O)NCc1csc2c1S(=O)(=O)N=C(C1=C(O)[C@@H]3[C@@H]4CC[C@@H](C4)[C@@H]3N(Cc3ccccc3)C1=O)N2 [Example 39, N-[3-((1S,2S,7R,8R)-3-Benzyl-6-hydroxy-4-oxo-3-aza-tricyclo[6.2.1.0^2,7]undec-5-en-5-yl)-1,1-dioxo-1,4-dihydro-1λ^6-thieno[2,3-e][1,2,4]thiadiazin-7-ylmethyl]-methanesulfonamide]",5 to 20 nM
8,"COc1ccc(CN2C(=O)C(C3=NS(=O)(=O)c4c(CNS(C)(=O)=O)csc4N3)=C(O)C3CCCCCC32)c(OC)c1 (racemic) [Example 79, (rac-cis)-N-{3-[1-(2,4-Dimethoxy-benzyl)-4-hydroxy-2-oxo-2,4a,5,6,7,8,9,9a-octahydro-1H-cyclohepta[b]pyridin-3-yl]-1,1-dioxo-1,4-dihydro-1λ^6-thieno[2,3-e][1,2,4]thiadiazin-7-ylmethyl}-methanesulfonamide]",> 1000 nM
9,"COc1ccc(CN2C(=O)C(C3=NS(=O)(=O)c4c(CNS(C)(=O)=O)csc4N3)=C(O)[C@@H]3[C@H]4CC[C@H](C4)[C@@H]32)c(OC)c1 [Example 72, N-{3-[(1R,2S,7R,8S)-3-(2,4-Dimethoxy-benzyl)-6-hydroxy-4-oxo-3-aza-tricyclo[6.2.1.0^2,7]undec-5-en-5-yl]-1,1-dioxo-1,4-dihydro-1λ^6-thieno[2,3-e][1,2,4]thiadiazin-7-ylmethyl}-methanesulfonamide]",> 1000 nM
10,"CC1(CCN2C(=O)C(C3=NS(=O)(=O)c4c(CNS(C)(=O)=O)csc4N3)=C(O)C3C4CCC(CC4)C32)CC1 (stereo not shown) [Example 109, N-(3-{6-Hydroxy-3-[2-(1-methyl-cyclopropyl)-ethyl]-4-oxo-3-aza-tricyclo[6.2.2.0^2,7]dodec-5-en-5-yl]-1,1-dioxo-1,4-dihydro-1λ^6-thieno[2,3-e][1,2,4]thiadiazin-7-ylmethyl)-methanesulfonamide]",5 to 20 nM
11,"Cc1cc(CN2C(=O)C(C3=NS(=O)(=O)c4c(CNS(C)(=O)=O)csc4N3)=C(O)C3CCCCCC32)ccc1F (racemic) [Example 139, (rac-cis)-N-{3-[1-(4-Fluoro-3-methyl-benzyl)-4-hydroxy-2-oxo-2,4a,5,6,7,8,9,9a-octahydro-1H-cyclohepta[b]pyridin-3-yl]-1,1-dioxo-1,4-dihydro-1λ^6-thieno[2,3-e][1,2,4]thiadiazin-7-ylmethyl}-methanesulfonamide]",> 1000 nM
12,"CS(=O)(=O)NCc1csc2c1S(=O)(=O)N=C(C1=C(O)C3CCCCCC3N(Cc3ccc(F)cc3F)C1=O)N2 (racemic) [Example 122, (rac-cis)-N-{3-[1-(2,4-Difluoro-benzyl)-4-hydroxy-2-oxo-2,4a,5,6,7,8,9,9a-octahydro-1H-cyclohepta[b]pyridin-3-yl]-1,1-dioxo-1,4-dihydro-1λ^6-thieno[2,3-e][1,2,4]thiadiazin-7-ylmethyl}-methanesulfonamide]",> 1000 nM
13,"CS(=O)(=O)NCc1csc2c1S(=O)(=O)N=C(C1=C(O)[C@@H]3[C@H]4CC[C@H](C4)[C@@H]3NC1=O)N2 [Example 80, N-[3-((1R,2S,7R,8S)-6-Hydroxy-4-oxo-3-aza-tricyclo[6.2.1.0^2,7]undec-5-en-5-yl)-1,1-dioxo-1,4-dihydro-1λ^6-thieno[2,3-e][1,2,4]thiadiazin-7-ylmethyl]-methanesulfonamide]",> 1000 nM
14,"CS(=O)(=O)NCc1csc2c1S(=O)(=O)N=C(C1=C(O)C3CCCCC3N(Cc3ccccc3)C1=O)N2 (racemic) [Example 130, (rac-cis)-N-[3-(1-Benzyl-4-hydroxy-2-oxo-1,2,4a,5,6,7,8,8a-octahydro-quinolin-3-yl)-1,1-dioxo-1,4-dihydro-1λ^6-thieno[2,3-e][1,2,4]thiadiazin-7-ylmethyl]-methanesulfonamide]",100 to 1000 nM
15,"CS(=O)(=O)NCc1csc2c1S(=O)(=O)N=C(C1=C(O)[C@@H]3[C@@H]4CC[C@@H](C4)[C@@H]3N(C3CCCCC3)C1=O)N2 [Example 98, N-[3-((1S,2S,7R,8R)-3-Cyclohexyl-6-hydroxy-4-oxo-3-aza-tricyclo[6.2.1.0^2,7]undec-5-en-5-yl)-1,1-dioxo-1,4-dihydro-1λ^6-thieno[2,3-e][1,2,4]thiadiazin-7-ylmethyl]-methanesulfonamide]",100 to 1000 nM
16,"CS(=O)(=O)NCc1csc2c1S(=O)(=O)N=C(C1=C(O)[C@@H]3[C@H]4CC[C@H](C4)[C@@H]3N(C3CCCCC3)C1=O)N2 [Example 97, N-[3-((1R,2S,7R,8S)-3-Cyclohexyl-6-hydroxy-4-oxo-3-aza-tricyclo[6.2.1.0^2,7]undec-5-en-5-yl)-1,1-dioxo-1,4-dihydro-1λ^6-thieno[2,3-e][1,2,4]thiadiazin-7-ylmethyl]-methanesulfonamide]",100 to 1000 nM
17,"CC(C)(C)CCN1C(=O)C(C2=NS(=O)(=O)c3c(CNS(C)(=O)=O)csc3N2)=C(O)C2C3CCC(C4CC43)C21 (racemic) [Example 24, (rac-di-endo)-N-{3-[3-(3,3-Dimethyl-butyl)-6-hydroxy-4-oxo-3-aza-tetracyclo[6.3.2.0^2,7.0^9,11]tridec-5-en-5-yl]-1,1-dioxo-1,4-dihydro-1λ^6-thieno[2,3-e][1,2,4]thiadiazin-7-ylmethyl}-methanesulfonamide]",≤ 5 nM
18,"CS(=O)(=O)NCc1csc2c1S(=O)(=O)N=C(C1=C(O)[C@@H]3[C@@H]4CC[C@@H](C4)[C@@H]3N(Cc3ccc(F)cc3F)C1=O)N2 [Example 40, N-{3-[(1S,2S,7R,8R)-3-(2,4-Difluoro-benzyl)-6-hydroxy-4-oxo-3-aza-tricyclo[6.2.1.0^2,7]undec-5-en-5-yl]-1,1-dioxo-1,4-dihydro-1λ^6-thieno[2,3-e][1,2,4]thiadiazin-7-ylmethyl}-methanesulfonamide]",20 to 100 nM
19,"CS(=O)(=O)NCc1csc2c1S(=O)(=O)N=C(C1=C(O)CC(C3CCC3)N(Cc3ccc(F)cc3)C1=O)N2 (racemic) [Example 6, rac-N-{3-[6-Cyclobutyl-1-(4-fluoro-benzyl)-4-hydroxy-2-oxo-1,2,5,6-tetrahydro-pyridin-3-yl]-1,1-dioxo-1,4-dihydro-1λ^6-thieno[2,3-e][1,2,4]thiadiazin-7-ylmethyl}-methanesulfonamide]",100 to 1000 nM
20,"CS(=O)(=O)NCc1csc2c1S(=O)(=O)N=C(C1=C(O)[C@@H]3[C@H]4CC[C@H](C4)[C@@H]3N(Cc3ccc(F)cc3Cl)C1=O)N2 [Example 94, N-{3-[(1R,2S,7R,8S)-3-(2-Chloro-4-fluoro-benzyl)-6-hydroxy-4-oxo-3-aza-tricyclo[6.2.1.0^2,7]undec-5-en-5-yl]-1,1-dioxo-1,4-dihydro-1λ^6-thieno[2,3-e][1,2,4]thiadiazin-7-ylmethyl}-methanesulfonamide]",20 to 100 nM
21,"CS(=O)(=O)NCc1csc2c1S(=O)(=O)N=C(C1=C(O)C3CCCCCC3N(Cc3ccccc3)C1=O)N2 (racemic) [Example 136, (rac-cis)-N-[3-(1-Benzyl-4-hydroxy-2-oxo-2,4a,5,6,7,8,9,9a-octahydro-1H-cyclohepta[b]pyridin-3-yl)-1,1-dioxo-1,4-dihydro-1λ^6-thieno[2,3-e][1,2,4]thiadiazin-7-ylmethyl]-methanesulfonamide]",20 to 100 nM
22,"CS(=O)(=O)NCc1csc2c1S(=O)(=O)N=C(C1=C(O)[C@@H]3[C@H]4CC[C@H](C4)[C@@H]3N(CC3CCCCC3)C1=O)N2 [Example 101, N-[3-((1R,2S,7R,8S)-3-Cyclohexylmethyl-6-hydroxy-4-oxo-3-aza-tricyclo[6.2.1.0^2,7]undec-5-en-5-yl)-1,1-dioxo-1,4-dihydro-1λ^6-thieno[2,3-e][1,2,4]thiadiazin-7-ylmethyl]-methanesulfonamide]",20 to 100 nM
